This is an account of results in patent publication US12454675B2, “Method of increasing protein yield in mammalian cells in serum-free culture medium” (AGENCY FOR SCIENCE, TECHNOLOGY AND RESEARCH, priority 2016, dated 2025).

The subject of one data set is CHO-DG44 cells. Briefly: Disaccharides to support growth of CHO-DG44 cells in HyQ PF-CHO. As to conditions: 10 g/l sugar, 22 days. In kind it is cell-based, Chinese Hamster. The text has this: (§1) In (A) CHO-K1 cells were cultivated in a serum-free protein-free cell culture medium, HyQ PF-CHO, with 3.6 g/l of different sugars (maltose, sucrose, lactose, trehalose or glucose) as carbohydrate source. The viable cell densities (lined markers) and culture viabilities (marker only) of these cultures at the beginning and end of each passage over a period of 74 days were plotted. Cultures with sucrose, lactose or trehalose were terminated on Day 31 due to the decreased culture viabilities and reduced viable cell densities. The experiment was repeated with a seeding cell density of 1.0×10^6 cells/ml to obtain similar results. In (B) CHO-DG44 cells were cultivated with a seeding cell density of 1.0×10^6 cells/ml in a serum-free protein-free cell culture medium, HyQ PF-CHO, with 10 g/l of different sugars (maltose, sucrose, lactose, trehalose or glucose) as carbohydrate source. The viable cell densities (lined markers) and cell viabilities (marker only) of these cultures at the beginning and end of each passage over a period of 22 days were plotted. In (C) HEK293 cells were cultivated with a seeding cell density of 1.0×10^6 cells/ml in a protein-free chemically defined cell culture medium, PFCDM, with 10 g/l of different sugars (maltose, sucrose, lactose, trehalose or glucose) as carbohydrate source. The viable cell densities (lined markers) and cell viabilities (marker only) of these cultures at the beginning and end of each passage over a period of 22 days were plotted. Cultures with sucrose, lactose or trehalose were terminated on Day 14 due to the decreased culture viabilities and reduced viable cell densities.
To determine whether the same approach can be applied on other CHO cell lines, the use of disaccharides to support the growth of CHO-DG44 cells was evaluated. These cells were cultivated with 10 g/l of maltose, sucrose, lactose, trehalose or glucose as energy source in a serum-free protein-free cell culture medium HyQ PF-CHO. The viable cell densities and culture viabilities of these cultures at the beginning and end of each passage over a period of 22 days are shown in FIG. 1B.

Another data set concerns CHO-K1 cells. As to the kind of experiment: Shake flask batch growth and biochemical profiles of CHO-K1 in maltose or glucose medium. The format is cell-based, Chinese Hamster. The method, then: Viable cell density and culture viability were determined by Trypan blue dye exclusion method using Vi-Cell XR Cell Viability Analyzer (Beckman Coulter, Brea, CA) according to manufacturer's instructions. For biochemical and other cell culture parameter analyses, 1 ml of culture sample was centrifuged at 8000 g for 10 minutes to obtain clarified supernatant. Concentrations of ammonium, glutamine, glucose and lactate were analyzed by the BioProfile 100 Plus (Nova Biomedical, Waltham, MA). Osmolality was measured using a vapor pressure osmometer (Vapro 5520, Wescor, Logan, UT), according to manufacturer's instructions. Maltose concentration was quantified using Maltose Colorimetric/Fluorometric Assay Kit (Biovision, Milpitas, CA), according to manufacturer's instructions. […] Cells were cultivated in single-use Erlenmeyer flasks (Corning), with a cell seeding density of 0.3×10^6 cells/ml in duplicates. Cell culture samples were collected and analyzed daily throughout the duration of the growth profile experiment until culture viabilities fell below 50%. When necessary, culture supernatant samples were stored at -20° C. for further analysis. […]0)=μt Equation 1

The nature of data set [1]: Maltose and glucose profiles in cell-free conditioned media. The format is physicochemical. The conditions noted are these: cell-free conditioned media of Days 2, 4, 6, 8; 3 g/l maltose; 37° C., 3 days. The method, then: In (A) SH87 cell were routinely maintained in glucose-only PFCDM was sub-cultivated into PFCDM with 4 g/l glucose, or 4 g/l glucose+3 g/l maltose. On Days 2, 4, 6 and 8, cell-free conditioned medium (CM) were harvested from both cultures. Viable cell densities (lined marker) and culture viabilities (marker only) were also monitored. In (B) CM from the maltose supplemented culture were incubated for a further 3 days at 37° C. Samples were harvested daily from these CM, starting from the day of harvest, to determine glucose and maltose concentrations. In (C) CM harvested from the glucose culture were spiked with maltose to a final concentration of 3 g/l prior to further incubation at 37° C. Samples from these CM were harvested daily for a further three (3) days to determine glucose and maltose concentrations. The averages and standard deviations from two (2) replicate shake flasks were plotted.
To further validate that the maltose was indeed utilized by the cells and not hydrolyzed in the culture media, cell-free conditioned media (CM) from Days 2, 4, 6 and 8 were obtained from a 3 g/l maltose supplemented culture as well as a 4 g/l glucose culture. 3 g/l maltose was spiked into the CM from the glucose culture, and both sets of CM were monitored over 3 days for changes in glucose and maltose concentrations at 37° C. (FIG. 4). […]

In another data set the test system is HEK293 cells. As to the kind of experiment: Disaccharides to support growth of HEK293 cells in PFCDM. In kind it is cell-based. The conditions noted are these: 10 g/l sugar, seeding 1.0×10^6 cells/ml, 22 days.
From the text: as §1

Where [2] appears, read: CHO-K1 maltose culture, 3.6 g/l.

`OC[C@H]1O[C@H](O[C@H]2[C@H](O)[C@@H](O)[C@H](O)O[C@@H]2CO)[C@H](O)[C@@H](O)[C@@H]1O` [maltose]: the “proliferation in serum-free protein-free culture medium with the sugar as sugar source” value with CHO-DG44 cells is reported as “can also proliferate”. For the same molecule, in the data set with CHO-K1 cells (CHO-K1, 3.6 g/l sugar), the “culture viabilities maintained over a longer period of time compared to glucose” value was “greater than 80%”, the “day on which glutamine was completely utilized” value was determined as 5 days and the final ammonium concentration was 0.20 g/L. In the data set on CHO-K1 cells (CHO-K1, 3.6 g/l sugar, viable cell density data till Day 4), this molecule gave a doubling time of 53.7 h. Also, the “maximum viable cell density” value in the data set on CHO-K1 cells (CHO-K1, HyQ PF-CHO, 3.6 g/l sugar, initial 0.3×10^6 cells/ml, maltose Day 7, glucose Day 6) is on record as 1.4×10^6 cells/ml. Also, in the data set on CHO-K1 cells (setting [2]), the “glucose in the culture medium” value was “not detectable” and the lactate production entry is reported as “lack of lactate production”. Besides, the “maltose hydrolysis in conditioned culture media” value in data set [1] is “not occurring spontaneously”. The “proliferation in serum-free culture medium with the sugar as sugar source” value in the data set with HEK293 cells is “can proliferate”.
